Test results reported in article PMC10938783, “A novel pan-PI3K inhibitor KTC1101 synergizes with anti-PD-1 therapy by targeting tumor suppression and immune activation” (Molecular Cancer, 2024).

System: B16 cells gene expression
Experiment: RNA-Seq (DEGs, GSEA, heatmaps) of B16 cells
Conditions: KTC1101 0.2μM, B16 cells, GSEA KEGG

COc1cc(N)cc2c1nc(C(F)F)n2-c1nc(N2CCCOCC2)nc(N2CCOCC2)n1 [KTC1101, 2-(difluoromethyl)-4-methoxy-1-(4-morpholino-6-(1,4-oxazepan-4-yl)-1,3,5-triazin-2-yl)-1H-benzo[d]imidazol-6-amine]
NES, mmu00600 Sphingolipid metabolism: -0.9518 | NES, mmu00860 Porphyrin metabolism: -1.036 | NES, mmu00980 Metabolism of xenobiotics by cytochrome P450: -1.182 | NES, mmu00982 Drug metabolism - cytochrome P450: -1.185 | NES, mmu01250 Biosynthesis of nucleotide sugars: -1.14 | NES, mmu01522 Endocrine resistance: 0.9546 | NES, mmu01523 Antifolate resistance: -0.7817 | NES, mmu02010 ABC transporters: -0.733 | NES, mmu03008 Ribosome biogenesis in eukaryotes: 0.4012 | NES, mmu03015 mRNA surveillance pathway: -0.5314 | NES, mmu03018 RNA degradation: -0.9036 | NES, mmu03022 Basal transcription factors: -0.6056 | NES, mmu03040 Spliceosome: -0.8341 | NES, mmu03060 Protein export: -1.073 | NES, mmu03082 ATP-dependent chromatin remodeling: 0.5087 | NES, mmu03083 Polycomb repressive complex: 0.285 | NES, mmu03250 Viral life cycle - HIV-1: -0.5849 | NES, mmu03410 Base excision repair: 0.509 | NES, mmu03420 Nucleotide excision repair: -0.5668 | NES, mmu03430 Mismatch repair: -0.5004 | NES, mmu03460 Fanconi anemia pathway: -1.065 | NES, mmu04014 Ras signaling pathway: -1.059 | NES, mmu04068 FoxO signaling pathway: 0.8311 | NES, mmu04070 Phosphatidylinositol signaling system: -0.719 | NES, mmu04071 Sphingolipid signaling pathway: -0.7752 | NES, mmu04115 p53 signaling pathway: 0.8074 | NES, mmu04120 Ubiquitin mediated proteolysis: -0.8155 | NES, mmu04130 SNARE interactions in vesicular transport: -0.572 | NES, mmu04136 Autophagy - other: 0.5764 | NES, mmu04137 Mitophagy - animal: -1.12 | NES, mmu04140 Autophagy - animal: -0.941 | NES, mmu04144 Endocytosis: 0.5953 | NES, mmu04146 Peroxisome: 0.8534 | NES, mmu04148 Efferocytosis: 0.8875 | NES, mmu04150 mTOR signaling pathway: -1.035 | NES, mmu04152 AMPK signaling pathway: -1.036 | NES, mmu04210 Apoptosis: 0.7025 | NES, mmu04211 Longevity regulating pathway: 0.8953 | NES, mmu04213 Longevity regulating pathway - multiple species: 0.9083 | NES, mmu04215 Apoptosis - multiple species: 0.9536 | NES, mmu04216 Ferroptosis: -1.019 | NES, mmu04217 Necroptosis: -1.0231 | NES, mmu04270 Vascular smooth muscle contraction: 0.9765 | NES, mmu04360 Axon guidance: 1.086 | NES, mmu04392 Hippo signaling pathway - multiple species: 1.0712 | NES, mmu04514 Cell adhesion molecules: 1.133 | NES, mmu04520 Adherens junction: 0.8769 | NES, mmu04530 Tight junction: -0.672 | NES, mmu04550 Signaling pathways regulating pluripotency of stem cells: 1.1205 | NES, mmu04611 Platelet activation: 0.9386 | NES, mmu04612 Antigen processing and presentation: 0.9078 | NES, mmu04622 RIG-I-like receptor signaling pathway: 0.797 | NES, mmu04623 Cytosolic DNA-sensing pathway: 1.118 | NES, mmu04650 Natural killer cell mediated cytotoxicity: 0.8466 | NES, mmu04658 Th1 and Th2 cell differentiation: 1.107 | NES, mmu04660 T cell receptor signaling pathway: 0.5971 | NES, mmu04662 B cell receptor signaling pathway: 0.8546 | NES, mmu04666 Fc gamma R-mediated phagocytosis: -1.143 | NES, mmu04670 Leukocyte transendothelial migration: 0.7018 | NES, mmu04714 Thermogenesis: -1.042 | NES, mmu04720 Long-term potentiation: 0.7614 | NES, mmu04723 Retrograde endocannabinoid signaling: 1.004 | NES, mmu04726 Serotonergic synapse: 1.185 | NES, mmu04727 GABAergic synapse: 1.114 | NES, mmu04728 Dopaminergic synapse: 0.9578 | NES, mmu04730 Long-term depression: 1.063 | NES, mmu04750 Inflammatory mediator regulation of TRP channels: 0.9151 | NES, mmu04910 Insulin signaling pathway: 1.052 | NES, mmu04912 GnRH signaling pathway: 1.125 | NES, mmu04915 Estrogen signaling pathway: 0.9405 | NES, mmu04916 Melanogenesis: 0.9564 | NES, mmu04917 Prolactin signaling pathway: 0.9333 | NES, mmu04920 Adipocytokine signaling pathway: 1.108 | NES, mmu04929 GnRH secretion: -1.07 | NES, mmu04930 Type II diabetes mellitus: 1.078 | NES, mmu04932 Non-alcoholic fatty liver disease: -1.05 | NES, mmu04934 Cushing syndrome: 0.9692 | NES, mmu04936 Alcoholic liver disease: 0.7413 | NES, mmu04960 Aldosterone-regulated sodium reabsorption: 1.176 | NES, mmu04961 Endocrine and other factor-regulated calcium reabsorption: 0.9748 | NES, mmu04962 Vasopressin-regulated water reabsorption: 1.132
